Test results taken from PubChem BioAssay (NCI).
Where “and” joins values, the source holds several entries; their conditions need not be identical. Equal values may be shown once.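 Tested at 5 concentrations; 48 h exposure; 96-well plates; endpoints linearly interpolated, else capped at highest concentration. GI50: concentration for 50% inhibition of growth. TGI denotes the concentration required for complete inhibition of growth.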

Columns and labels:
Assay in all cases: inhibition of tumour cell growth, NCI panel, 48 h
[1] = system: SF-268 CNS
[2] = system: MCF7 breast
[3] = system: SF-539 CNS
[4] = system: SW-620 colon
[5] = system: SR leukemia
[6] = system: SK-MEL-2 melanoma
[7] = system: PC-3 prostate
[8] = system: SN12C renal
[9] = system: BT-549 breast
[10] = system: U251 CNS

Structure (SMILES)	GI50 [1]	TGI [1]	GI50 [2] [µM]	TGI [2]	GI50 [3] [µM]	TGI [3]	GI50 [4] [µM]	TGI [4]	GI50 [5]	TGI [5]	GI50 [6] [µM]	TGI [6]	GI50 [7] [µM]	TGI [7]	GI50 [8] [µM]	TGI [8]	GI50 [9] [µM]	TGI [9]	GI50 [10] [µM]	TGI [10]
O=C(Nc1ccc(-n2cc(-c3ccncc3)c(-c3ccc(Cl)c(O)c3)n2)cc1)c1cc(C(F)(F)F)cc(C(F)(F)F)c1	7.39 µM	51.6 µM	3.53	13.8 µM	2.95	13.8 µM	5.4	35.6 µM	9.51 µM	> 100 µM	6.61	31.7 µM	3.29	28.5 µM	7.14	89.9 µM	13.3	91.2 µM	4.91	22 µM
CC(=O)C1(C(=O)C(=[N+]=[N-])S(=O)(=O)c2ccccc2)CC1		> 100 µM		> 100 µM		> 100 µM		> 100 µM		> 100 µM		> 100 µM		> 100 µM		> 100 µM		> 100 µM		> 100 µM
O=C1Nc2ccc(-c3cccnc3)cc2/C1=C/c1cc(Br)c(O)c(Br)c1	7.71 µM	> 25 µM	11.4	> 25 µM	5.15	> 22.4 µM	8.23	> 25 µM	8.24 µM	> 25 µM	3.11	6.85 µM	9.05	> 25 µM	9.12	> 25 µM	6.05	> 18.9 µM	6.11	> 25 µM
C/C(=C/CCC(C)[C@@H]1CC[C@]2(C)C3=C(CC[C@@]12C)[C@@]1(C)CCC(=O)C(C)(C)[C@@H]1CC3)C(=O)O (stereo not given in full)	1.47 µM	3.08 µM	1.02	2.87 µM	1.37	2.93 µM	1.39	3.41 µM	1.14 µM	2.93 µM	1.26	2.89 µM	1.12	2.51 µM	1.21	2.89 µM	1.17	2.45 µM	0.817	2.29 µM
Nc1nc(-c2ccccc2)c(CC(=O)O)s1		> 100 µM		> 100 µM		> 100 µM		> 100 µM		> 100 µM		> 100 µM		> 100 µM		> 100 µM		> 100 µM		> 100 µM
O=C(CCCCN1CCN(CCCCC(=O)Nc2ccccc2C#C/C=C\C#Cc2ccccc2C(F)(F)F)CC1)Nc1ccccc1C#C/C=C\C#Cc1ccccc1C(F)(F)F	12.3 µM	32.9 µM	9.97	23 µM	10.2	19.3 µM	9.39	18.4 µM	3.23 µM	16.6 µM	12.4	29.9 µM	13.9	> 50 µM	17.6	> 50 µM	8.94	17.4 µM	9.01	18.9 µM
O=[N+]([O-])/C=C/c1ccc2ccccc2c1		> 35.6 µM		> 100 µM		> 100 µM		3.99 µM		> 100 µM		> 61.6 µM		14 µM		22.7 µM		7.8 µM		3.08 µM
Nc1c(C(=O)Nc2ccccc2)sc2nc3c(cc12)C(=O)CCC3	1.02 µM	> 100 µM	0.366	> 100 µM	0.384	> 26.1 µM	0.333	> 100 µM	0.533 µM	> 100 µM	0.35		0.389	> 100 µM	6.2	> 100 µM	3.17	> 100 µM	0.486	> 41.9 µM
O=C(CI)NC(=O)NC(=O)NCc1ccccc1	4.4 µM	21.6 µM	2.28	8.59 µM	1.92	4 µM	1.77	3.78 µM	0.804 µM	3.1 µM	7.5	21.6 µM	15.1	30.7 µM	3.5	14.6 µM	2.8	8.17 µM	13.6	27.1 µM
N=C(N)n1cc(/C=N/N=C(N)N)cn1		> 100 µM		> 100 µM		> 100 µM		> 100 µM		> 100 µM				> 100 µM		> 100 µM		> 100 µM		> 100 µM
CCOC(=O)c1cn(C)c2c(OC)c3ccccc3c(OC)c2c1=O	20.1 µM	74.9 µM	22.9	47.8 µM	34	> 100 µM			28.5 µM	88.6 µM			29	> 100 µM	28.1	86.9 µM	43	> 100 µM	20.3	55.3 µM
OCCNc1nc2ccccc2c2[nH]c3ccccc3c12	0.519 µM	3.42 µM	0.355	2 µM	0.615	3.68 µM	0.325	2.26 µM	0.206 µM	5.95 µM	0.907	3.29 µM	1.1	16.9 µM	0.34	11.4 µM	1.73	6.68 µM	0.661	4.31 µM
NC(=O)c1nc(-c2c(F)cccc2Cl)oc1Nc1ccc(C(=O)N2CCOCC2)cc1	3.07 µM	> 100 µM	0.596	> 100 µM	1.32	5.16 µM	0.703	> 100 µM	1 µM	84.7 µM	12.7	58.6 µM	7.83	> 100 µM	2.12	> 100 µM	3.62	54.6 µM	2.25	> 100 µM
CC(=O)Nc1cccc(C#Cc2cncnc2Nc2ccc(OCc3cccc(F)c3)c(Cl)c2)c1	16.6 µM	> 25 µM	8.33	> 25 µM	14.9	> 25 µM	17.9	> 25 µM	> 18.7 µM	> 25 µM	6.43	> 22.8 µM	8.49	> 25 µM	10.2	> 25 µM	11.9	> 25 µM	11.8	> 25 µM
COc1ccc(N(CC(=O)O)N=O)cc1		> 100 µM		> 100 µM		> 100 µM		> 100 µM		> 100 µM		> 100 µM		> 100 µM		> 100 µM		> 100 µM		> 100 µM
CN(C)CCNC(=O)Nc1ccc(N(C)c2ccnc(Nc3ccc(CS(C)(=O)=O)cc3)n2)cc1	> 25 µM	> 25 µM	> 25	> 25 µM	> 20.9	> 25 µM	> 25	> 25 µM	14.8 µM	> 25 µM	> 25	> 25 µM	> 25	> 25 µM	> 25	> 25 µM	> 25	> 25 µM	> 25	> 25 µM
C#COc1cccc(Nc2ncnc3cc(NC(=O)[C@@H](C)Cl)ccc23)c1	16.9 µM	> 62.5 µM	18.8	> 62.5 µM	8.61	46 µM	3.95	> 62.5 µM	3.08 µM	> 62.5 µM	5.24	> 62.5 µM	11.7	> 62.5 µM	16.8	> 62.5 µM	6.89	> 62.5 µM	7.29	> 62.5 µM
Cn1cc(-c2ccc3ncc(-c4ccc(CC(=O)Nc5cc(C(C)(C)C)nn5C)cc4)cc3c2)cn1	1.45 µM	> 20 µM	1.47	> 20 µM	2.22	> 20 µM	1.67	> 20 µM	0.967 µM	> 20 µM	0.789	7.14 µM	0.961	> 20 µM	0.854	> 20 µM	0.589	2.78 µM	2.11	> 20 µM
S=C(Sc1ccc(Cl)cc1)Sc1ccc(Cl)cc1	2.1 µM	6.6 µM	2.38	7.59 µM	1.74	3.84 µM	1.62	3.01 µM	0.362 µM	2.03 µM	4.61	16.7 µM	1.58	3.34 µM	2.12	5.34 µM	1.21	3.16 µM	2.64	8.92 µM
CCc1ccc(Oc2c(-c3ccc(OCc4ccc(Cl)cc4)cc3O)nn(C)c2C(F)(F)F)cc1	1.25 µM	2.9 µM	0.339	1.9 µM	1.77	3.75 µM	0.382	1.76 µM	0.502 µM	3.76 µM	1.02	2.63 µM	0.358	1.68 µM	1.04	2.48 µM	1.56	3.34 µM	0.357	1.36 µM
Nc1ncnc2c1c(-c1ccc(Oc3ccccc3)cc1)nn2CC1SSCC1O (stereo not given)	0.126 µM	7.01 µM	1.44	7.85 µM	1.05	8.19 µM	1.58	32.5 µM	0.251 µM	2.11 µM	0.825	2.15 µM	6.23	14.9 µM	4.97	15.2 µM	7.11	17.1 µM	4.31	9.66 µM
CC[n+]1c(-c2ccccc2)c2cc(N)ccc2c2ccc(N)cc21	0.281 µM and 0.589 µM and 1.26 µM	2.44 µM and 11.9 µM and 16.9 µM	1.07	12.9 µM and 15.3 µM	0.763	4.4 µM and 6.43 µM and 6.19 µM	1.05	16.2 µM and 33.3 µM and 22.2 µM	0.801 µM and 1.69 µM and 4.08 µM	> 100 µM and 13 µM	1.11	3.8 µM and 6.55 µM	1.97	17.5 µM and 26.5 µM	0.306	12 µM and 19.7 µM and 7.37 µM	0.831	3.01 µM and 3.87 µM	0.399	10.2 µM and 20.7 µM
Cc1ccccc1Nc1cc(O)c2c(=O)cc(-c3ccccc3)oc2c1	4.49 µM	> 100 µM	0.821	> 100 µM	3.1	> 100 µM	0.734	> 100 µM	0.395 µM	> 100 µM	2.44	> 100 µM	3.3	> 100 µM	4.05	> 100 µM	4.03	> 100 µM	3.04	> 100 µM
CCN1C(=O)N(CC)C2C1NC(=S)N2/N=C/C=C/c1ccccc1 (stereo not given)	0.32 µM	> 100 µM	0.0418	> 100 µM	0.0633	0.871 µM	0.0726	> 100 µM	0.0444 µM	> 100 µM	0.661	> 100 µM	0.0734	> 100 µM	0.385	> 100 µM	0.225	13 µM	0.302	> 100 µM
O=c1[nH]c(=S)[nH]c(O)c1/C=C1\C=Nc2ccccc21	2.52 µM	7.91 µM	3.95	23.9 µM	3.11	9.87 µM	1.83	3.78 µM	1.72 µM	4.52 µM	19.5	59 µM	4.88	73.3 µM	7.95	59.4 µM	9.92	37.4 µM	2.11	5.87 µM
CCOC(=O)c1cc(C(=O)c2ccc(OC)c(OC)c2)n2c1ccc1ccc3cccnc3c12	4.62 µM	> 100 µM	2.25	> 100 µM			0.93	> 100 µM	0.807 µM	> 100 µM	2.67	66.6 µM	0.96	> 100 µM	5.46	> 100 µM	1.94	> 100 µM	3.61	26.9 µM
CCN(CC)CCCC(Nc1c2ccc(Cl)cc2nc2ccc(OC)cc12)c1ccc(Cl)cc1 (stereo not given)	1.43 µM	3.05 µM	0.348	1.43 µM	1.56	3.1 µM	1.37	2.99 µM	0.217 µM	0.512 µM	1.89	3.63 µM	1.55	3.04 µM			1.7	3.47 µM	0.579	1.83 µM
